Patent publication EP0561850B1, “7-SUBSTITUTED-6-FLUORO-1,4-DIHYDRO-4-OXO-QUINOLINE-3-CARBOXYLIC ACID COMPOUNDS USEFUL AS ANTIBACTERIAL AGENTS” (priority 1990, dated 1992)
Converted amounts (≈) assume the structure as drawn.

Assays:
Experiment in all cases: Microbroth dilution (MHB) method, NCCLS M7-A2
[1] = test system: Sa 127M; type: cell-based, Staphylococcus aureus; details: Staphylococcus aureus, inoculum 5 x 10^5 cfu/ml, 35 °C/18 hr, read-out: MIC
Procedure: (§1) The test organisms were obtained from ATCC and clinical laboratories. The 96-well microtitre plates containing […] of serially diluted test compounds in Mueller Hinton Broth (MHB) (conc. range 64-0.03 µg/ml) were inoculated with […] of bacterial suspension in MHB so that an inoculum size of 5 x 10^5 cfu/ml was achieved.
(§2) EC. (S- 63): Eschericia coli Ecl. (S- 130): Enterobacter cloacae Pa. (S- 67): Pseudomonas aeruginosa Kp. (S- 80): Klebsiella pneumoniae Pr.
(§3) Microbroth Dilution (MHB) method; Inoculum, 5 x 10^5 cfu/ml; Incubation 35 °C/18 hr

[2] = test system: Klebsiella pneumoniae S-80; type: cell-based; details: Klebsiella pneumoniae, S80; Kp S-80; MHB; inoculum 5 x 10^5 cfu/ml; 35 °C/18 hr; read-out: MIC
Procedure: as §1, §2, §3

[3] = test system: Providencia rettgeri S-121; type: cell-based; details: Providencia rettgeri, S121, Pr S-121, inoculum 5 x 10^5 cfu/ml, 35 °C/18 hr, read-out: MIC
Procedure: as §1, §2, §3

[4] = test system: Staphylococcus aureus S-127; type: cell-based; details: Staphylococcus aureus, S127, Sa S-127, inoculum 5 x 10^5 cfu/ml, 35 °C/18 hr, read-out: MIC
Procedure: as §1, §2, §3

[5] = test system: Pseudomonas aeruginosa S-67; type: cell-based; details: Pseudomonas aeruginosa, S67; Pa S-67; MHB; inoculum 5 x 10^5 cfu/ml; 35 °C/18 hr; read-out: MIC
Procedure: as §1, §2, §3

[6] = test system: Eschericia coli S-63; type: cell-based; details: Ec S-63, inoculum 5 x 10^5 cfu/ml, 35 °C/18 hr, read-out: MIC
Procedure: as §1, §2, §3

[7] = test system: Enterobacter cloacae S-130; type: cell-based; details: Enterobacter cloacae, S130, Ecl S-130, inoculum 5 x 10^5 cfu/ml, 35 °C/18 hr, read-out: MIC
Procedure: as §1, §2, §3

| MIC [1] [µg/mL] | MIC [2] [µg/mL] | MIC [3] [µg/mL] | MIC [4] [µg/mL] | MIC [5] [µg/mL] | MIC [6] [µg/mL] | MIC [7] [µg/mL] | Structure (SMILES) |
| --- | --- | --- | --- | --- | --- | --- | --- |
| ≤ 0.015 | 1 (≈ 2.34 µM) | 2 (≈ 4.68 µM) | ≤ 0.015 | 8 (≈ 18.7 µM) | 0.12 (≈ 0.281 µM) | 1 (≈ 2.34 µM) | COc1c(N2CCC(n3cc(C)nn3)C2)c(F)cc2c(=O)c(C(=O)O)cn(C3CC3)c12 (stereo not drawn) [Example 33] |
| 0.25 (≈ 0.602 µM) | 0.5 (≈ 1.2 µM) | 2 (≈ 4.81 µM) | 0.125 (≈ 0.301 µM) | 4 (≈ 9.63 µM) | 0.25 (≈ 0.602 µM) | 1 (≈ 2.41 µM) | Cc1cn(C2CCN(c3c(F)cc4c(=O)c(C(=O)O)cn(C5CC5)c4c3F)C2)nn1 (stereo not drawn) [Example 27, 1-Cyclopropyl-6,8-difluoro-7-[3-(4-methyl-1,2,3-triazol-1-yl)pyrrolidin-1-yl]-1,4-dihydro-4-oxo-quinoline-3-carboxylic acid] |
| 0.25 (≈ 0.599 µM) | 1 (≈ 2.4 µM) | 0.06 (≈ 0.144 µM) | 0.25 (≈ 0.599 µM) | 16 (≈ 38.3 µM) | 1 (≈ 2.4 µM) | 2 (≈ 4.79 µM) | O=C(O)c1cn(C2CC2)c2c(F)c(N3CCC(n4ccnn4)C3)c(F)c(O)c2c1=O (stereo not drawn) [Example 50, 1-Cyclopropyl-5-hydroxy-6,8-difluoro-7-[-3-(1,2,3-triazol-1-yl)-pyrrolidin-1-yl]-1,4-dihydro-4-oxo-quinoline-3-carboxylic acid] |
| 16 (≈ 50.1 µM) | 0.12 (≈ 0.376 µM) | 1 (≈ 3.13 µM) | 1 (≈ 3.13 µM) | 1 (≈ 3.13 µM) | 0.06 (≈ 0.188 µM) | 0.12 (≈ 0.376 µM) | CCn1cc(C(=O)O)c(=O)c2cc(F)c(N3CCNCC3)cc21 [MFLX, Norfloxacin, reference compound] |
| 8 (≈ 18 µM) | 32 (≈ 71.8 µM) | 32 (≈ 71.8 µM) | 8 (≈ 18 µM) | > 32 | 16 (≈ 35.9 µM) | 32 (≈ 71.8 µM) | O=C(O)c1cn(C2CC2)c2c(F)c(N3CCC(n4nncc4C(=O)O)C3)c(F)cc2c1=O (stereo not drawn) [Example 43, 1-Cyclopropyl-6,8-difluoro-7-(3-(5-carboxy-1,2,3-triazol-1-yl)-pyrrolidin-1-yl)-1,4-dihydro-4-oxo-quinoline-3-carboxylic acid] |
| ≤ 0.03 | 0.25 (≈ 0.605 µM) | 0.12 (≈ 0.29 µM) | ≤ 0.03 | 4 (≈ 9.68 µM) | 0.12 (≈ 0.29 µM) | 0.5 (≈ 1.21 µM) | COc1c(N2CCC(n3ccnn3)C2)c(F)cc2c(=O)c(C(=O)O)cn(C3CC3)c12 (stereo not drawn) [Example 32, 1-Cyclopropyl-6-fluoro-7-[3-(1,2,3-triazol-1-yl)pyrrolidin-1-yl]-8-methoxy-1,4-dihydro-4-oxo-quinoline-3-carboxylic acid] |
| 1 (≈ 2.4 µM) | 1 (≈ 2.4 µM) | 1 (≈ 2.4 µM) | 0.25 (≈ 0.6 µM) | 4 (≈ 9.61 µM) | 0.5 (≈ 1.2 µM) | 1 (≈ 2.4 µM) | Nc1cn(C2CCN(c3c(F)cc4c(=O)c(C(=O)O)cn(C5CC5)c4c3F)C2)nn1 (stereo not drawn) [Example 42, 1-Cyclopropyl-6,8-difluoro-7-(3-(4-amino-1,2,3-triazol-1-yl)-pyrrolidin-1-yl)-1,4-dihydro-4-oxo-quinoline-3-carboxylic acid] |
| 0.03 (≈ 0.0697 µM) | 0.25 (≈ 0.581 µM) | 0.25 (≈ 0.581 µM) | ≤ 0.015 | 2 (≈ 4.65 µM) | 0.06 (≈ 0.139 µM) | 0.25 (≈ 0.581 µM) | Cc1cn(C2CCN(c3c(F)c(N)c4c(=O)c(C(=O)O)cn(C5CC5)c4c3F)C2)nn1 (stereo not drawn) [Example 25, 5-Amino-1-cyclopropyl-6,8-difluoro-7-[3-(4-methyl-1,2,3-triazol-1-yl)pyrrolidin-1-yl]-1,4-dihydro-4-oxo-quinoline-3-carboxylic acid] |
|  | 1 (≈ 2.32 µM) | 1 (≈ 2.32 µM) | 25 (≈ 58.1 µM) | 8 (≈ 18.6 µM) | 0.5 (≈ 1.16 µM) | 0.25 (≈ 0.581 µM) | NCc1cnnn1C1CCN(c2c(F)cc3c(=O)c(C(=O)O)cn(C4CC4)c3c2F)C1 (stereo not drawn) [Example 44] |
|  |  |  | ≤ 0.015 |  | 0.12 (≈ 0.288 µM) |  | Nc1c(F)c(N2CCC(n3cncn3)C2)c(F)c2c1c(=O)c(C(=O)O)cn2C1CC1 (stereo not drawn) [Example 28, 5-Amino-1-cyclopropyl-6,8-difluoro-7-[3-(1,2,4-triazol-1-yl)pyrrolidin-1-yl]-1,4-dihydro-4-oxo-quinoline-3-carboxylic acid] |
|  |  |  | 0.03 (≈ 0.0695 µM) |  | 0.12 (≈ 0.278 µM) |  | Nc1cn(C2CCN(c3c(F)c(N)c4c(=O)c(C(=O)O)cn(C5CC5)c4c3F)C2)nn1 (stereo not drawn) [Example 41, 5-Amino-1-cyclopropyl-6,8-difluoro-7-(3-(4-amino-1,2,3-triazol-1-yl)-pyrrolidin-1-yl)-1,4-dihydro-4-oxo-quinoline-3-carboxylic acid] |
